{"source": "patent US20020150582A1", "about": "“Method of treating or inhibiting cellular injury or cell death” (priority 2001, published 2002)", "key": {"[1]": {"test_system": "open chest rats undergoing myocardial ischemia/reperfusion", "assay": "Survival of open chest rats undergoing myocardial ischemia/reperfusion (second test procedure)", "type": "in vivo, rat", "settings": "for percent survival: 3 mg/kg iv"}, "TNF": {"test_system": "TNF", "assay": "Serum TNF (ELISA) in open chest rats undergoing myocardial ischemia", "type": "in vivo, rat", "settings": "for serum concentration of TNF: mean ± sem", "protocol": "(§1) Male Sprague-Dawley rats weighing 505±5 g were anesthetized with sodium pentobarbital (50 mg/kg I.P.). An endotracheal tube was secured in place and connected to a small-animal respirator (Harvard Apparatus, Model 683, South Natick, Mass.) set on 100 breaths/min, with a tidal volume of 2-3 mnL/breath. Body temperature was maintained using a heating pad with circulating warm water (K-model 100, Baxter Laboratories). A left thoracotomy was performed, the heart exposed and the pericardium removed. Left ventricular pressure was measured using a saline-filled polyethylene catheter attached to an angiocatheter (20 Gauge) inserted through the apex of the heart and connected to a P23 ID Statham/Gould pressure transducer. Arterial pressure was monitored via a saline-filled polyethylene catheter (PE 50) introduced into the left carotid artery. The right jugular vein was also cannulated with a polyethylene catheter (PE 50) for IV drug infusions and volume repletion (0.9% NaCl). Subcutaneous needles were positioned in the limbs for ECG recordings.\n(§2) In the second test procedure, the main coronary artery of rats undergoing coronary occlusion was located and occluded close to its origin using a 5-0 suture passed underneath the vessel that could be tightened over a short section of PE tubing (PE 20) to initiate regional ischemia. Reperfusion was reinstated by removing the short segment of PE tubing.\nBlood samples were collected in syringes in the absence of any anticoagulant and immediately placed in Microtainer® serum separator tubes (Becton Dickinson) and centrifuged at 2000 g for 6 minutes. The serum was removed, frozen immediately, and stored at −20° C. until the analysis could be performed. The concentration of serum TNF collected at preselected time points was determined for individual rats by enzyme-linked immunosorbent assay (ELISA), utilizing the Factor-Test-X (Genzyme Inc, Cambridge, Mass., Cat #80-3905-01) according to the manufacturer's instructions. Briefly, 100 μL of serum was diluted 1:2 in 0.1% bovine serum albumin/phosphate buffered saline and added in duplicate to a 96-well microtiter plate. A standard curve was generated by plotting the concentrations of rat TNF standards versus their absorbances. […] The detection limit of this assay was 10 pg/mL. Additionally, the manufacturer has determined that this ELISA is highly specific for rat TNF."}, "[2]": {"test_system": "open chest rats undergoing myocardial ischemia/reperfusion", "assay": "Determination of infarct size (TTC staining)", "type": "in vivo, rat", "settings": "3 mg/kg i.v.", "protocol": "as §2\nThe heart was removed and sliced in five to six coronal sections, which were immersed in 1% triphenyltetrazolium chloride (TTC) for 10-15 minutes. The heart sections were removed, blotted dry and traced onto acetate sheets. The areas of infarction were clearly demarcated by a pale appearance in the ischemic zone, and a brick red color of non-infarcted myocardium. The areas of all sections were determined by planimetric methods and infarct area was expressed as a percentage of the left ventricle."}, "[3]": {"test_system": "open chest rats in the absence of myocardial ischemia", "assay": "Hemodynamic parameters in open chest rats in the absence of myocardial ischemia (first test procedure)", "type": "in vivo, rat", "settings": "for +dP/dt / Heart Rate / LVPdev / Mean BP: percent change from pre-drug baseline 15 minutes after drug administration", "protocol": "as §1, with “recordings. […]” for “recordings.”"}, "Ca+2 current (ICa-L)": {"test_system": "Ca+2 current (ICa-L)", "assay": "L-type Ca2+ current recording in isolated ventricular myocytes (patch clamp)", "type": "cell-based, cat", "protocol": "The latter process was performed three times.\nPatch-clamp current and voltage recordings were made with the ruptured patch whole-cell configuration at 36-37° C. (14). For studies on L-type Ca^2+ currents, cells were bathed with modified Tyrode's containing (in mM): 157 TEA-Cl, 5 CaCl2, 0.5 MgCl2, and 10 HEPES. Electrode internal solution contained (in mM): 10 L-Glutamic Acid, 20 CsCl, 10 EGTA, 1 MgCl2, 1 CaCl2, 20 HEPES, and 5 ATP-Mg2; pH adjusted with CsOH. In all of the studies, electrode resistance was measured to be 2-3.5 MΩ. The reference zero potential was adjusted in the bath before forming seals. Recordings were performed with an Axon Instruments 200B amplifier (Axon Instruments, Culver City, Calif. USA) interfacing a DigiData 1200 DA/AD acquisition system. Ionic currents were evoked by depolarizing voltage step (1 sec-long) from −30 to +60 mV, in 10-mV increments, from a holding potential of −40 mV delivered at the frequency of 1 Hz. Action potentials were elicited at a frequency of 1 Hz by injection of brief depolarizing current pulses. Software used in data acquisition and analysis was pClamp v.6.04 and Origin v 5.0 (Microcal Software, Northampton, Mass.)."}, "[4]": {"test_system": "Adult human kidney proximal tubular (HK-2) cells", "settings": "HK-2 cells cultured for 0-20 hr; necrotic form of cell death; cited from earlier work"}, "[5]": {"test_system": "isolated feline ventricular myocytes", "settings": "25 μM, soon after exposure"}, "[6]": {"settings": "0.1 mg/kg iv (first dose), mean ± sem"}, "[7]": {"settings": "0.3 mg/kg iv (second dose, after 0.1 mg/kg iv)"}, "[8]": {"settings": "1.0 mg/kg iv (second dose, after 0.3 mg/kg iv)"}, "[9]": {"settings": "following infusion (0.1+0.3 mg/kg)"}}, "note": "Marks after values point to notes of the source that are not given here."}
{"compound": "Etanercept", "values": [{"measurement": "mortality resulting from myocardial ischemia/reperfusion", "setting": "[1]; 3 mg/kg i.v. administered immediately before occlusion", "value": "significantly reduced mortality"}, {"measurement": "rats dead", "setting": "[1]; 3 mg/kg i.v., t=90 minutes of reperfusion", "value": "1 out of 9"}, {"measurement": "percent survival", "setting": "[1]; 0 min (end of ischemia)", "value": 100, "unit": "%"}, {"measurement": "percent survival", "setting": "[1]; 30 min reperfusion", "value": 100, "unit": "%"}, {"measurement": "percent survival", "setting": "[1]; 60 min reperfusion", "value": 100, "unit": "%"}, {"measurement": "percent survival", "setting": "[1]; 90 min reperfusion", "value": 89, "unit": "%"}, {"measurement": "percent survival", "setting": "[1]; 120 min reperfusion", "value": "89* percent"}, {"measurement": "percent survival", "setting": "[1]; 150 min reperfusion", "value": "88* percent"}, {"measurement": "percent survival", "setting": "[1]; −30 min (baseline)", "value": 100, "unit": "%"}, {"measurement": "serum concentration of TNF", "setting": "TNF; 0 min (end of ischemia)", "value": "2299 ± 357", "unit": "pg/mL"}, {"measurement": "serum concentration of TNF", "setting": "TNF; 30 min reperfusion", "value": "2057 ± 349", "unit": "pg/mL"}, {"measurement": "serum concentration of TNF", "setting": "TNF; 60 min reperfusion", "value": "1592 ± 258", "unit": "pg/mL"}, {"measurement": "serum concentration of TNF", "setting": "TNF; 90 min reperfusion", "value": "1108 ± 279", "unit": "pg/mL"}, {"measurement": "serum concentration of TNF", "setting": "TNF; 120 min reperfusion", "value": "721 ± 209", "unit": "pg/mL"}, {"measurement": "serum concentration of TNF", "setting": "TNF; 150 min reperfusion", "value": "580 ± 193", "unit": "pg/mL"}, {"measurement": "effect on TNFα spike in concentration in response to vascular occlusion", "setting": "TNF; at 0 minutes", "value": "significantly reduced"}, {"measurement": "serum concentration of TNF", "setting": "TNF; −30 min (baseline)", "value": "0 ± 0", "unit": "pg/mL"}, {"measurement": "Infarct size, expressed as a percentage of the left ventricle", "setting": "[2]", "value": "24±3", "unit": "%"}]}
{"compound": "Sphingomyelin", "values": [{"measurement": "+dP/dt", "setting": "[3]; [6]", "value": "1 ± 13", "unit": "%"}, {"measurement": "Heart Rate", "setting": "[3]; [6]", "value": "7 ± 9", "unit": "%"}, {"measurement": "LVPdev", "setting": "[3]; [6]", "value": "3 ± 11", "unit": "%"}, {"measurement": "Mean BP", "setting": "[3]; [6]", "value": "−3 ± 17", "unit": "%"}, {"measurement": "+dP/dt", "setting": "[3]; [7]", "value": "6 ± 15", "unit": "%"}, {"measurement": "Heart Rate", "setting": "[3]; [7]", "value": "8 ± 10", "unit": "%"}, {"measurement": "LVPdev", "setting": "[3]; [7]", "value": "4 ± 12", "unit": "%"}, {"measurement": "Mean BP", "setting": "[3]; [7]", "value": "2 ± 2", "unit": "%"}]}
{"compound": "CCCCCCCCCCCCC/C=C/[C@@H](O)[C@@H](N)CO", "note": "[Sphingosine]", "values": [{"measurement": "+dP/dt", "setting": "[3]; 0.3 mg/kg iv (first dose)", "value": "−33 ± 12", "unit": "%"}, {"measurement": "Heart Rate", "setting": "[3]; 0.3 mg/kg iv (first dose)", "value": "−4 ± 4", "unit": "%"}, {"measurement": "Mean BP", "setting": "[3]; 0.3 mg/kg iv (first dose)", "value": "−24 ± 12", "unit": "%"}, {"measurement": "+dP/dt", "setting": "[3]; [8]", "value": "−32 ± 18", "unit": "%"}, {"measurement": "Heart Rate", "setting": "[3]; [8]", "value": "−18 ± 1", "unit": "%"}, {"measurement": "LVPdev", "setting": "[3]; [8]", "value": "−24 ± 14", "unit": "%"}, {"measurement": "Mean BP", "setting": "[3]; [8]", "value": "−17 ± 19", "unit": "%"}, {"measurement": "+dP/dt reduced from baseline", "setting": "[3]; [9]", "value": "33±12", "unit": "%"}, {"measurement": "LVP depressed from baseline", "setting": "[3]; [9]", "value": "24±8", "unit": "%"}, {"measurement": "block of ICa-L", "setting": "Ca+2 current (ICa-L); 2.5 μM", "value": "17±7", "unit": "%"}, {"measurement": "block of ICa-L", "setting": "Ca+2 current (ICa-L); 25 μM", "value": "75±4", "unit": "%"}, {"measurement": "concentration inducing rapid, concentration-dependent cytotoxicity", "setting": "[4]", "value": "≥ 10", "unit": "µM"}, {"measurement": "myocardial cell death (morphology, lack of viability)", "setting": "[5]", "value": "lead to myocardial cell death"}]}
